Patent publication US5591773A, “Inhibition of cataract formation, diseases resulting from oxidative stress, and HIV replication by caffeic acid esters” (priority 1994, dated 1997)
Several values for one entry are separate records, joined by “and”; a condition that tells them apart may be missing. Identical values can stand only once.

Key:
[1] = system: TPA-induced PMN infiltration in mouse skin (MPO); test: TPA-induced PMN infiltration (MPO) in dorsal skin of SENCAR mice; type: in vivo
Protocol: (§1) FIGS. 2A-2D. CAPE-mediated inhibition of TPA-induced oxidative processes in SENCAR mice. Mice were topically treated with 6.5 nmol CAPE 30 min prior to 6.5 nmol TPA, and this regimen was repeated 20 h later. Mice were sacrificed 1 h after the last treatment and the skin removed for determination of: (FIG. 2A) PMN infiltration (by measuring myeloperoxidase (MPO)); (FIG. 2B) H2 O2; (FIG. 2C) HMdUrd (HMdU); and (FIG. 2D) 8-OHdGua (8-OHdG), according to procedures described in the "Experimental Details" Section, infra. .quadrature., controls treated with acetone in place of CAPE and TPA; , treatment with acetone followed by TPA; .box-solid., treatment with CAPE followed by TPA. Results are expressed as mean ± SE (bars) from two experiments (2 mice/experiment) in the CAPE series. Data for acetone (ACT)- and TPA-treated mean values were collected from over 20 experiments.
A) Treatment of Animals and Assays. Female SENCAR (6-8 weeks old) and CD-1 mice (about 7 weeks old) were purchased from Biological Testing, National Cancer Institute (Frederick, Md.) and from Charles River Laboratory (Stone Ridge, N.Y.), respectively. The mice were acclimated for at least 1 week before use. They were subjected to a 12-h light/12-h dark cycle, housed at 20°±2° C. in a room with 10 cycles of air exchanges/h, given food and water ad libitum, and observed for any indication of ill health. Before topical application of any test agents, their backs were shaved and only those without hair growth after 48 h were used.
(§2) C) MPO, H2 O2, and Oxidized DNA Bases. SENCAR mice were pretreated with CAPE for 30 min; then 6.5 nmol (4 μg) TPA/mouse topically applied to the dorsal skin. After 20 h, the CAPE and TPA treatment (1x) was repeated (2x treatment). One h after the second treatment, the mice were sacrificed by cervical dislocation, and 12.5-mm punches were obtained to be used separately for MPO and H2 O2 determinations. The remainder of the treated mouse skin or the combined skins from two mice were used for separation of epidermal cells. This was done by heating the skin at 55° C. for 30 s followed by rapid immersion into an ice-cold water bath (45). After the epidermis was scraped off, the presence of oxidized DNA base derivatives was measured in the epidermal DNA. All of these end points were analyzed by published procedures and are briefly described below.
The assay for MPO was carried out according to the procedure of Metcalf et al. (53) with some modifications (20), and the results are expressed as units/cm^2, where a unit is defined as that degrading 1 μmol H2 O2 /min at 25° C. The presence of MPO in the mouse ears was measured in the homogenates. They were prepared by mincing the ears and homogenizing them in an ice-cold water bath with a polytron homogenizer, either twice for 20 s each or three times for 10 s each. Each homogenate was analyzed in duplicate and the results are expressed as mean MPO (units/mg protein) ±SE for each of the homogenates.
(§3) ^a Mice were treated as described in the legend to FIG. 2, except tha

[2] = system: 8-OHdGua in epidermal DNA; test: TPA-induced 8-OHdGua formation in epidermal DNA of SENCAR mice; type: in vivo
Protocol: as §1, §2
The epidermis was homogenized and lysed, and the proteins and RNA were removed by proteinase K and RNase digestions, respectively (20). The DNA was separated and purified on A.S.A.P. columns (Boehringer-Mannheim Biochemicals) and precipitated with isopropyl alcohol.
The pellet was then washed with 70% ethyl alcohol, dried, and dissolved in 10 mM Tris.cndot.HCl-100 mM NaCl buffer, pH 7.0, according to the manufacturer's procedure. The DNA was sheared and enzymatically digested to nucleosides, and the hydrolysates were separated by HPLC (Beckman, Model 344) on an ODS column (Altex, 1×25 cm; 5 μm particle size) (50). The fractions that eluted after 30 ml were combined (excluding those containing normal nucleosides) and dried. The oxidized nucleosides were detected by ^3 H-postlabeling with [^3 H]acetic anhydride, followed by HPLC analysis of ^3 H-containing acetates in the presence of marker acetates (50). The results are presented as the number of oxidized nucleosides/10^4 normal bases, unless otherwise stated.
as §3

[3] = system: TPA-induced edema in SENCAR mouse ears; test: TPA-induced ear edema; type: in vivo, SENCAR mice
Protocol: FIG. 3. Effect of CAPE on TPA-induced PMN infiltration and edema in SENCAR mouse ears. These were paired experiments, in which both ears of each mouse (8-9/group) were treated with 0.4 nmol TPA±CAPE in 20 μl acetone, and the mice were sacrificed 5 h later. (A) One ear was frozen for subsequent determination of MPO (a measure of PMN infiltration). (B) A punch (6 mm diameter) was taken from the second ear and weighed to measure edematous response (weight of sample minus weight of control). (A) Ears of each group (7-9/group) were separately minced and homogenized under different conditions as described in the "Experimental Details" Section, infra. MPO was determined in duplicate. MPO was undetectable in acetone controls and was 4.13±0.0 units/mg protein and 1.18±0.1 units/mg protein in the 2 homogenates of TPA-only-treated mice. CAPE-mediated inhibition was calculated versus the appropriate TPA-only sample, which was homogenized the same way. (B) Weights of ear punches (8-9/group, each determined separately). Acetone controls, 7.2±0.1 mg; TPA in acetone, 16.7±0.7 mg.
B) Edema Determination. Both ears of SENCAR mice (7-9 mice/group) were treated with 0.4 nmol TPA in 20 μl acetone alone or together with added 0.1 nmol, 0.3 nmol, or […] CAPE. Control mice were treated with acetone. The mice were sacrificed by cervical dislocation 5 h after treatment, and edema was measured on one mouse ear, while the second ear was immediately frozen and later analyzed for PMN infiltration by quantifying myeloperoxidase (MPO) (see below). Ear edema (increased weight of ear punches) was determined as previously described (24). Edema was expressed as mg/6 mm (diameter) ear punch±SE.

[4] = CAPE 6.5 nmol, TPA 6.5 nmol, 2x

Row | SMILES | decrease of TPA-induced PMN infiltration ([1]; CAPE 6.5 nmol 30 min before each of two TPA 6.5 nmol applications, SENCAR mouse skin) | MPO ([1]; CAPE 6.5 nmol pretreatment then TPA 6.5 nmol, 2x, (4 experiments), SE 0.3 on next line) | MPO ([1]; CAPE 650 nmol pretreatment then TPA 6.5 nmol, 2x, (4 experiments), SE 2.0 on next line) | TPA-mediated PMN infiltration and formation of HMdUrd and 8-OHdGua at high dose (in words) ([1]; CAPE 650 nmol/treatment, 2x, 20 h apart, vs 6.5 nmol) | 8-OHdGua/10^5 bases ([2]; CAPE 6.5 nmol then TPA 6.5 nmol, 2x, (2 experiments), SE 0.8 on next line) | 8-OHdGua suppression below acetone controls (basal levels) [2, 4] | decline of 8-OHdGua formation [2, 4] | 8-OHdGua/10^5 bases ([2]; CAPE 650 nmol then TPA 6.5 nmol, 2x, (2 experiments), SE 1.1 on next line) | inhibition of inflammatory processes, particularly oxidation of bases in DNA (in words) ([2]; compared with untreated blanks) | orders of magnitude higher CAPE dose needed for similar inhibition of edema vs PMN infiltration ([3]; 1 μmol vs 0.1 nmol CAPE/ear) | inhibition of TPA-induced ear edema (in words) ([3]; CAPE 1 μmol/ear, TPA 0.4 nmol/ear) | fold higher CAPE dose required to comparably inhibit ear edema versus PMN infiltration in skin ([3]; relative to 6.5 nmol CAPE, same mouse strain, (76)) | MPO ([1]; TPA alone, 6.5 nmol, mean ± SE (spread on next printed line: 7.6)) | 8-OHdGua/10^5 bases ([2]; TPA alone, 6.5 nmol, SE 6.3 on next line) | weight of ear punches ([3]; TPA 0.4 nmol in acetone, 5 h, 6 mm punch)
1 | O=C(/C=C/c1ccc(O)c(O)c1)OCCc1ccccc1 [CAPE, Caffeic acid phenethyl ester] | ≈ 85% and 85% | 5.9 units/cm^2 skin | 10.8 units/cm^2 skin | this reduction was not as effective as that caused by the lower (6.5 nmol) dose of CAPE | 1.4 /10^5 bases | 70% | ~170% | 9.4 /10^5 bases | down to the background levels represented by untreated blanks | 4 orders of magnitude | inhibits | > 100 fold | – | – | –
2 | CCCCCCCCCCCCCC(=O)O[C@@H]1[C@@H](C)[C@@]2(O)[C@@H](C=C(CO)C[C@]3(O)C(=O)C(C)=C[C@@H]23)[C@@H]2C(C)(C)[C@]12OC(C)=O [TPA, 12-O-tetradecanoylphorbol-13-acetate] | – | – | – | – | – | – | – | – | – | – | – | – | 23.7 units/cm^2 skin | 11.8 /10^5 bases | 16.7 ± 0.7 mg
